Measured values as given in patent US8999892B2, “Use of S-abscisic acid for improving fruit set and producing parthenocarpic fruits and as a growth inhibitor” (Globachem, priority 2004, dated 2015).

How the values were obtained:
Format in all cases: in vivo
[1] = tested on: apple trees, variety Jonagored; assay: Promoting fruit set in pome fruit, orchard spray trial 2003; details: 2 g/ha sprayed three weeks after full flower
From the text: Experimental period: 2003 Pome fruit crops treated: apple trees, variety Jonagored. The fruit orchard was sprayed on 9 May, that is, three weeks after full flower (18 April). S-ABA was applied in a dose of 2 g/ha. For the control experiment, the same formulation, but without S-ABA, was used. The number of fruit trees per plot was 10.

[2] = tested on: cherry trees, variety Summit; assay: Improvement of fruit set in stone fruit, orchard spray trial 2004; details: 2 g/ha sprayed one week after flowering
From the text: Experimental period: 2004 Stone fruit crops treated: cherry trees, variety Summit The fruit orchard was sprayed with S-ABA one week after flowering; the dose was 2 g/ha. For the control experiment, the same formulation, but without S-ABA, was used. The number of fruit trees per plot was 5.

[3] = tested on: apple trees, variety Boskoop; assay: Promoting fruit set, production of parthenocarpic fruits and inhibition of growth in pome fruit, orchard spray trial 2004; details: for Number of apples/tree / Number of unclosed buds/tree (crown tip excluded): evaluation 6 Jul. 2004
From the text: Experimental period: 2004 Pome fruit crops treated: apple trees, variety Boskoop The fruit orchard was sprayed on 23 April, that is, during full flower. A further plot was spayed on 20 May 2004. S-ABA was applied in a dose of 2 g/ha. For the control experiment, the same formulation, but with-out S-ABA, was used. The number of fruit trees per plot was 40. The evaluation on 6 Jul. 2004 provided the following results: The buds or shoots in the crown tip of the trees were not taken into account because increased shoot growth frequently occurs in these places due to intensive cutting measures. In general, the growth of shoots in the crown tip is stronger than in the other regions of the tree crown.

[4] = 2 g/ha sprayed 23 April (full flower)

For `CC(C=C[C@@]1(O)C(C)=CC(=O)CC1(C)C)=CC(=O)O` (stereo in doubt) [S-ABA, (S)-5-(1-hydroxy-2,6,6-trimethyl-4-oxo-2-cyclohexenyl)-3-methyl-cis/trans-2,4-pentanedienoic acid], the “Apples in grade 75-85 mm” value [1] was 15.54 kg, the “Apples in grade A2++ (75-85 mm)” value [1] was 9.62 kg and the “Increase in number of apples per tree as compared to the control” value [1] was 17%. For the same compound, the “Increase in yield (in kg) as compared to the control” value [1] was 8%, the “Increase in yield in the high grades” value [1] was 84% and the “Increase in yield of grade A2++ (optimal fruit color)” value [1] was “near doubling of the yield”. For the same compound, the Number of apples/tree [1] was 129, the Yield ([1]; 10 trees per plot) was 33.37 kg/tree and the “Formation of parthenocarpic fruits” value [2] was “Parthenocarpic fruits were not observed”. For the same compound, the “Increase in number of fruits compared to the control plot” value [2] was “near doubling of the number of fruits”, the Weight per cherry [2] was “not significantly influenced” and the Yield ([2]; 5 trees per plot) was 25 kg/tree. For the same compound, the Number of apples/tree ([3]; 2 g/ha sprayed 20 May) was 42, the “Number of unclosed buds/tree (crown tip excluded)” value ([3]; 2 g/ha sprayed 20 May) was 0 and the Number of apples/tree [3, 4] was 35.4. For the same compound, the “Number of unclosed buds/tree (crown tip excluded)” value [3, 4] was 1.66, the “Increase in total number of apples per tree as compared with the control” value ([3]; plot treated 20 May) was “approximately 21%” and the “Closure of buds (inhibition of vegetative growth)” value ([3]; plots treated with S-ABA, independently of the time of treatment) was “almost all buds were closed”. For the same compound, the “Effect on fruit set of treatment during flowering” value ([3]; treatment during flowering (23 April)) was “not adversely affected” and the “Formation of parthenocarpic fruits” value ([3]; trees treated with 2 g/ha) was “parthenocarpic, pipless fruits were formed”.
